# Assay results from patent publication US20210284647A1, “N-(3-(IMIDAZO[1,2-B]PYRIDAZIN-3-YLETHYNYL)-4-METHYLPHENYL)-5-PHENYL-4,5-DIHYDRO-1H-PYRAZOLE-1-CARBOXAMIDE DERIVATIVE, AND PHARMACEUTICAL COMPOSITION CONTAINING SAME AS ACTIVE INGREDIENT FOR TREATING KINASE-RELATED DISEASES” (VORONOIBIO INC., priority 2018, published 2021).
# Counter-ions that a name gives are not always drawn.
# Key:
# [1] = biological target: T1, human GST-RIPK1 (Homo sapiens, UniProt Q13546); assay: RIPK1 inhibitory activity (ADP-Glo kinase assay); assay type: biochemical; conditions: human GST-RIPK1 10 ng, ATP 50 uM, 25° C. for 4 hours, read-out: Enzyme IC50
# T1 construct: GST; purchased signalchem
# T1 sequence (Q13546 1-375 limits assumed): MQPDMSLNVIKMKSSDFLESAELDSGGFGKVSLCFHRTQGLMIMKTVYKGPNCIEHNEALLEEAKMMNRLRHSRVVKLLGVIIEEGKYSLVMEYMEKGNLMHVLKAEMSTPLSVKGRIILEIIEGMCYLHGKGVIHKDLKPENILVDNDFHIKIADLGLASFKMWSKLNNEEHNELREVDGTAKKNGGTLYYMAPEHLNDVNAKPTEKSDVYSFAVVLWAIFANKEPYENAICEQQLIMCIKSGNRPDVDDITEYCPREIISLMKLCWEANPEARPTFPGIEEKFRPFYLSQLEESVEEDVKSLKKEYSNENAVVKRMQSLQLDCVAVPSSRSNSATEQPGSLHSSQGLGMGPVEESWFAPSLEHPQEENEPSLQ
# Procedure: The following experiment was performed to evaluate the inhibitory activity of the example compounds according to the present invention against RIPK1 (receptor-interacting serine/threonine protein kinase 1).
# The example compound was reacted with the purified human GST-RIPK1 (1375, signalchem) enzyme to evaluate the enzyme inhibitory activity in the following manner. The composition of the reaction buffer used herein was as follows: 40 mM Tris-Hcl pH 7.4, 20 mM MgCl2, 0.5 mg/ml, BSA and 0.5 uM DTT. All the test materials were reacted in the reaction buffer. After reacting human GST-RIPK1 (1375, 10 ng), purified ATP (50 uM) and a specific substrate solution at 25° C. for 4 hours, the enzyme activity was confirmed using an in vitro ADP-Glo™ kinase assay (promega). Luminoscence was measured by reacting the enzyme activity reaction solution, ADP-Glo reaction solution, and enzyme activity detection solution at the ratio of 2:2:1. The degree of enzyme activity inhibition according to the treatment concentration of each compound was calculated based on the fluorescence of the enzyme activity of the solvent control not treated with the compound. At this time, the concentration of each compound inhibiting 50% of the enzyme activity was determined as IC50 (nM). IC50 of each compound was determined with three data sets and calculated using Prism (version 7.01, GraphPad) software.
# [2] = tested on: human Jurkat T cells deficient in FADD; assay: Cell protection effect under apoptosis-inducing condition (TNF-α); assay type: cell-based; conditions: 40 ng of TNF-α, 50 hours, CellTiter-Glo, read-out: I2.I Cell EC50
# Procedure: The cell protection effect of the compounds according to the present invention under the condition of inducing apoptosis by TNF-α was confirmed by […]. An apoptosis inducing factor such as TNF-α was treated to induce apoptosis of human Jurkat T cells deficient in FADD, to which the example compound was treated, and the cell protection effect was confirmed through the following analysis. Jurkat T cells deficient in FADD were cultured using RPMI medium (Hyclone) containing 10% FBS. When performing the test, the cells were seeded in a 96-well plate containing a medium suitable for the cell line at the density of 10,000 cells/well, and cultured in a 37° C. 5% CO2 incubator for 24 hours. Then, each well was treated with 40 ng of TNF-α, and the compounds prepared in the above examples were each treated with a 3-fold concentration gradient with 1 μM as the highest concentration. As the solvent control, dimethyl sulfoxide (DMSO) was treated at the concentration of 0.05% (v/v), which was the same concentration as that used for the compound treatment. Then, the cells were cultured for 50 hours. To confirm the degree of viability of the cells, a mixture provided in CellTiter-Gloe Luminescent Cell Viability Assay Kit (Promega) was added to the culture medium of the cells, followed by further culture at 37° C. for 30 minutes. Then, luminescence fluorescence was measured. The degree of inhibition of apoptosis induction according to the treatment concentration of each compound was calculated based on the fluorescence of the solvent control cells not treated with the compound. At this time, the concentration of each compound inhibiting 50% was determined as EC50 (μM). EC50 of each compound was calculated using Prism (version 7.01, GraphPad) software.
Structure (SMILES),IC50 [1],EC50 [2]
"Cc1ccc(NC(=O)N2N=CCC2c2cccc(F)c2)cc1C#Cc1cnc2cccnn12 (stereo not drawn) [Example 8, 5-(3-fluorophenyl)-N-(3-(imidazo[1,2-b]pyridazin-3-ylethynyl)-4-methylphenyl)-4,5-dihydro-1H-pyrazole-1-carboxamide 2,2,2-trifluoroacetate]",83.6 nM,0.59 nM
"Nc1cccn2c(C#Cc3cccc(NC(=O)N4N=CCC4c4ccccc4)c3)cnc12 (stereo not drawn) [Example 59, N-(3-((8-aminoimidazo[1,2-a]pyridin-3-yl)ethynyl)phenyl)-5-phenyl-4,5-dihydro-1H-pyrazole-1-carboxamide hydrochloride]",127 nM,17.6 nM
"O=C(Nc1cccc(C#Cc2cnc3cccnn23)c1)N1N=CC[C@@H]1c1cccc(F)c1 [Example 30, (R)-5-(3-fluorophenyl)-N-(3-(imidazo[1,2-b]pyridazin-3-ylethynyl)phenyl)-4,5-dihydro-1H-pyrazole-1-carboxamide 2,2,2-trifluoroacetate]",399 nM,321 nM
"O=C(Nc1cccc(C#Cc2cnc3cccnn23)c1)N1N=CC[C@@H]1c1ccccc1 [Example 21, (R)—N-(3-(imidazo[1,2-b]pyridazin-3-ylethynyl)phenyl)-5-phenyl-4,5-dihydro-1H-pyrazole-1-carboxamide hydrochloride]",> 1000 nM,588 nM
"O=C(Nc1cc(C#Cc2cnc3cccnn23)ccc1F)N1N=CCC1c1ccccc1 (stereo not drawn) [Example 47, N-(2-fluoro-5-(imidazo[1,2-b]pyridazin-3-ylethynyl)phenyl)-5-phenyl-4,5-dihydro-1H-pyrazole-1-carboxamide 2,2,2-trifluoroacetate]",50.1 nM,> 1000 nM
"O=C(Nc1cccc(C#Cc2cnc3cccnn23)c1)N1N=CCC1c1ccc(Cl)cc1 (stereo not drawn) [Example 35, 5-(4-chlorophenyl)-N-(3-(imidazo[1,2-b]pyridazin-3-ylethynyl)phenyl)-4,5-dihydro-1H-pyrazole-1-carboxamide 2,2,2-trifluoroacetate]",61.6 nM,3.87 nM
"Cc1ccc(NC(=O)N2N=CC[C@@H]2c2cc(F)cc(F)c2)cc1C#Cc1cnc2cccnn12 [Example 6, (R)-5-(3,5-difluorophenyl)-N-(3-(imidazo[1,2-b]pyridazin-3-ylethynyl)-4-methylphenyl)-4,5-dihydro-1H-pyrazole-1-carboxamide 2,2,2-trifluoroacetate]",> 1000 nM,249 nM
"O=C(Nc1cccc(C#Cc2cnc3cccnn23)c1)N1N=CCC1c1cc2ccccc2cn1 (stereo not drawn) [Example 41, N-(3-(imidazo[1,2-b]pyridazin-3-ylethynyl)phenyl)-5-(isoquinolin-3-yl)-4,5-dihydro-1H-pyrazole-1-carboxamide]",33 nM,64.6 nM
"Cc1ccc(NC(=O)N2N=CCC2c2ccc(F)cc2)cc1C#Cc1cnc2cccnn12 (stereo not drawn) [Example 11, 5-(4-fluorophenyl)-N-(3-(imidazo[1,2-b]pyridazin-3-ylethynyl)-4-methylphenyl)-4,5-dihydro-1H-pyrazole-1-carboxamide 2,2,2-trifluoroacetate]",47.4 nM,0.35 nM
"O=C(Nc1ccnc(C#Cc2cnc3cccnn23)c1)N1N=CC[C@@H]1c1ccccc1 [Example 50, (R)—N-(2-(imidazo[1,2-b]pyridazin-3-ylethynyl)pyridin-4-yl)-5-phenyl-4,5-dihydro-1H-pyrazole-1-carboxamide 2,2,2-trifluoroacetate]",> 1000 nM,197 nM
"CS(=O)(=O)c1ccc(Nc2cccn3c(C#Cc4cccc(NC(=O)N5N=CCC5c5ccccc5)c4)cnc23)cc1 (stereo not drawn) [Example 65, N-(3-((8-((4-(methylsulfonyl)phenyl)amino)imidazo[1,2-a]pyridin-3-yl)ethynyl)phenyl)-5-phenyl-4,5-dihydro-1H-pyrazole-1-carboxamide 2,2,2-trifluoroacetate]",51.4 nM,0.2 nM

# Compounds with a lower IC50 [1], results first:
IC50 [1],EC50 [2],Structure (SMILES)
2.35 nM,55.4 nM,"COc1ccc(C2CC=NN2C(=O)Nc2cccc(C#Cc3cnc4cccnn34)c2)cc1 (stereo not drawn) [Example 27, N-(3-(imidazo[1,2-b]pyridazin-3-ylethynyl)phenyl)-5-(4-methoxyphenyl)-4,5-dihydro-1H-pyrazole-1-carboxamide 2,2,2-trifluoroacetate]"
4.3 nM,0.1 nM,"Cc1ccc(NC(=O)N2N=CCC2c2ccc(Cl)cc2)cc1C#Cc1cnc2cccnn12 (stereo not drawn) [Example 15, 5-(4-chlorophenyl)-N-(3-(imidazo[1,2-b]pyridazin-3-ylethynyl)-4-methylphenyl)-4,5-dihydro-1H-pyrazole-1-carboxamide 2,2,2-trifluoroacetate]"
5.83 nM,0.3 nM,"O=C(Nc1cccc(C#Cc2cnc3cccnn23)c1)N1N=CC[C@H]1c1cccc(F)c1 [Example 29, (S)-5-(3-fluorophenyl)-N-(3-(imidazo[1,2-b]pyridazin-3-ylethynyl)phenyl)-4,5-dihydro-1H-pyrazole-1-carboxamide 2,2,2-trifluoroacetate]"
12.7 nM,1.5 nM,"O=C(Nc1cccc(C#Cc2cnc3cccnn23)c1)N1N=CCC1C1CCCCC1 (stereo not drawn) [Example 42, 5-cyclohexyl-N-(3-(imidazo[1,2-b]pyridazin-3-ylethynyl)phenyl)-4,5-dihydro-1H-pyrazole-1-carboxamide]"
18.9 nM,43 nM,"O=C(Nc1cccc(C#Cc2cnc3cccnn23)c1)N1N=CCC1c1cccc(Cl)c1 (stereo not drawn) [Example 34, 5-(3-chlorophenyl)-N-(3-(imidazo[1,2-b]pyridazin-3-ylethynyl)phenyl)-4,5-dihydro-1H-pyrazole-1-carboxamide 2,2,2-trifluoroacetate]"
8.8 nM,0.09 nM,"O=C(Nc1ccc(F)c(C#Cc2cnc3cccnn23)c1)N1N=CC[C@H]1c1ccccc1 [Example 45, (S)—N-(4-fluoro-3-(imidazo[1,2-b]pyridazin-3-ylethynyl)phenyl)-5-phenyl-4,5-dihydro-1H-pyrazole-1-carboxamide 2,2,2-trifluoroacetate]"
6.9 nM,201 nM,"O=C(Nc1cccc(C#Cc2cnc3cccnn23)c1)N1N=CCC1c1ccc(C(F)(F)F)cc1 (stereo not drawn) [Example 26, N-(3-(imidazo[1,2-b]pyridazin-3-ylethynyl)phenyl)-5-(4-(trifluoromethyl)phenyl)-4,5-dihydro-1H-pyrazole-1-carboxamide 2,2,2-trifluoroacetate]"
19 nM,12.4 nM,"O=C(Nc1cccc(C#Cc2cnc3cccnn23)c1)N1N=CCC1c1ccc2ccccc2c1 (stereo not drawn) [Example 40, N-(3-(imidazo[1,2-b]pyridazin-3-ylethynyl)phenyl)-5-(naphthalen-2-yl)-4,5-dihydro-1H-pyrazole-1-carboxamide]"
2.76 nM,0.44 nM,"O=C(Nc1cccc(C#Cc2cnc3cccnn23)c1)N1N=CC[C@H]1c1cc(F)cc(F)c1 [Example 24, (S)-5-(3,5-difluorophenyl)-N-(3-(imidazo[1,2-b]pyridazin-3-ylethynyl)phenyl)-4,5-dihydro-1H-pyrazole-1-carboxamide 2,2,2-trifluoroacetate]"
3.8 nM,0.26 nM,"O=C(Nc1cccc(C#Cc2cnc3cccnn23)c1)N1N=CCC1c1ccccc1 (stereo not drawn) [Example 19, N-(3-(imidazo[1,2-b]pyridazin-3-ylethynyl)phenyl)-5-phenyl-4,5-dihydro-1H-pyrazole-1-carboxamide 2,2,2-trifluoroacetate]"
